Reference: patent US4649215A, “Aliphatic thioethers” (Ciba-Geigy Corporation, priority 1984, dated 1987)
Where a name gives a salt, the structure may show the parent alone.

Tests used:
[1] = test system: leucotrienes; experiment: leucotriene-antagonistic activity (test not specified); details: reverse absolute configuration at C-5 and C-6 compared with natural leucotrienes
Description: Thus, in various test arrangements in vitro they have a clear leucotriene-antagonistic action.
As already mentioned above, there is a general analogy between the structure of the compounds of the formula I according to the invention and that of leucotrienes, especially in the obligatory trans-configuration of the vicinal S- and O-atoms mentioned at the beginning and the total structure of the mercaptoalkanoic acid residue (A) (especially in its typical form of a cysteine peptide). They differ from leucotrienes essentially in lacking the characteristic terminal carboxy group in the olefinic radical (B).

[2] = molecular target: phospholipase C from human thrombocytes; experiment: inhibition of phospholipase C obtained from human thrombocytes; assay type: biochemical; details: human thrombocyte enzyme, 37° 5 minutes, pH 6, phosphatidyl-[14C]-inositol
Description: To ascertain the enzyme activity, enzyme (20-100 μg protein) is incubated at 37° for 5 minutes in 0.025M tris/malate buffer pH 6 with the addition of 0.2 mM CaCl2 and 0.02 mM radioactively labelled substrate, phosphatidyl-[^14 C]-inositol. The reaction is stopped by extraction by shaking with CHCl3 /CH3 OH 2:1 (v/v). In the course of this unconsumed substrate is extracted into the organic phase, whilst the reaction product, ^14 C-inositol phosphate, remains in the aqueous phase and can be measured by radiometry of an aliquot.
In order to ascertain the inhibitory action of test substances on phospholipase C, these substances are added in the form of solutions in water, dimethyl sulphoxide (final concentration in the mixture up to 5%, v/v) or ethanol (final concentration in the mixture up to 2.5%, v/v) to the incubation mixture. The strength of action of the test substances is expressed by the IC50, that is to say the concentration that causes a 50% inhibition of the control activity. The IC50 is ascertained on a graph by plotting the percentage inhibition on the ordinate against the log of the concentration (μM) on the abscissa.

[3] = molecular target: phospholipase A2 from human leucocytes; experiment: inhibition of phospholipase A2 obtained from human leucocytes; assay type: biochemical; details: human leucocyte enzyme, 37° 1 hour, pH 7, 14C-oleic acid labelled E. coli phospholipides
Description: Human neutrophilic polymorphonuclear leucocytes are isolated from "buffy coats" by multistage fractional sedimentation and deep-frozen. Phospholipase A2 is extracted from the cell suspension by homogenisation with the addition of icecold 0.36N H2 SO4 in 2N NaCl, and the supernatant obtained after centrifugation at 10,000× g is dialysed against sodium acetate buffer pH 4.5.
In order to determine the enzyme activity, enzyme (10-30 μg protein) is incubated at 37° for 1 hour in 0.1M tris/HCl buffer pH 7 with the addition of 1 mM CaCl2 and substrate consisting of phospholipides (2 μm) of Escherichia coli that have been radioactively labelled with ^14 C-oleic acid by means of biosynthesis. The reaction is stopped by the addition of Dole reagent (isopropanol/heptane/1N H2 SO4 40:10:1, v/v) and the ^14 C-oleic acid selectively released by phospholipase A2 is extracted. Substrate also extracted at the same time is completely removed by filtering the extract through a column of silica gel. The ^14 C-oleic acid in the eluate is determined by radiometry.
In order to ascertain the inhibitory action of test substances on phospholipase A2, these substances are added in the form of solutions in water, dimethyl sulphoxide (final concentration in the mixture up to 5% v/v) or ethanol (final concentration in the mixture up to 2.5% v/v) to the incubation mixture. […]

Row | SMILES | activity (leucotriene antagonism), in words [1] | IC50 [2] [µM] | IC50 [3] [µM]
1 | CCCCCCCC\C=C/C=C/C=C/[C@H](SCC(NC(=O)C(F)(F)F)C(=O)NCC(=O)O)[C@H](O)CCCC (stereo partly drawn) [Example 60A, Sodium salt of N-[S-5(R),6(S)-5-hydroxy-7,9-trans-11-cis-icosatrien-6-yl-N-trifluoroacetylcysteinyl]-glycine] | highly active |  | 
2 | CCN(CC)CCCC(C)Nc1c2ccc(Cl)cc2nc2ccc(OC)cc12 (stereo not drawn) [mepacrine] |  | 20 | 1600
